In patent US8697694B2, “Substituted pyridine and pyrimidine derivatives and their use in treating viral infections” (priority 2008, dated 2014) one finds EC90 data, which are given here for 55 compounds.

Where only a bound is given, the exact number is not on record here.

For the first test, the system named is HCV replicon cells. Briefly: Cell-based HCV replicon assay (replicon RNA level by real time PCR, Taqman). The conditions noted are these: HCV replicon cells, harvested day 3, replicon RNA by real time PCR; reported as range class; read-out: EC90 (μM) range. Put shortly:
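HCV replicon cells treated 3 days with 10 serial 2-fold compound dilutions (top 25 μM to 1 μM; 0.5% DMSO, 10% FBS). Replicon RNA quantified by multiplex Taqman RT-PCR (NS5B amplicon, GAPDH control); EC50 and EC90 = concentrations giving ΔCT of 1 and 3.2 over baseline.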
(In general: In antiviral work, replicon cells carry a viral genome segment that copies itself.)
Take `COc1cc2cc(-c3c(Cl)nc(N(C)C)nc3N[C@@H]3C[C@H](CO)[C@@H](O)[C@H]3O)oc2c(C)n1` [Example 13]: the EC90 – broadly, the concentration needed for an effect of 90% – is over 5 µM.

The same test, now with this note: Hepatitis C virus, 72 h, HCV replicon cells, harvested day 3, replicon RNA by real time PCR; given as number; read-out: EC90 (μM) range.
As to `CCOc1cc2cc(-c3c(C)nc(NC(C)(C)CC)nc3N[C@@H]3C[C@H](CO)[C@@H](O)[C@H]3O)oc2c(C)n1` [Example 26], the EC90 turned out to be 0.5 µM.

In the case of `CCOc1cc2cc(-c3c(C)nc(N[C@H](C)C4CC4)nc3N[C@@H]3C[C@H](CO)[C@@H](O)[C@H]3O)oc2c(C)n1` [Example 41], the 90% effect concentration (EC90) is 0.2 µM.

The test is the same for the next values; noted with them: Hepatitis C virus, 72 h, HCV replicon cells, harvested day 3, replicon RNA by real time PCR; reported as range class; read-out: EC90 (μM) range.
On to `Cc1ccc2oc(-c3c(Cl)nc(N)nc3N[C@@H]3C[C@H](CO)[C@@H](O)[C@H]3O)nc2c1` [Example 193], for which the EC90 was over 5 µM.

On to `Nc1nc(Cl)c(-c2nccs2)c(N[C@@H]2C[C@H](CO)[C@@H](O)[C@H]2O)n1` [Example 104], for which the EC90 is over 5 µM.

Consider `Cc1cncc2oc(-c3c(Cl)nc(N)nc3N[C@@H]3C[C@H](CO)[C@@H](O)[C@H]3O)cc12` [Example 304], for which the EC90 was over 5 µM.

On to `Nc1nc(Cl)c(-c2cnccn2)c(N[C@@H]2C[C@H](CO)[C@@H](O)[C@H]2O)n1` [Example 159], for which the concentration for an effect of 90% (EC90) is over 5 µM.

Take `CCOc1ccc2nc(-c3c(Cl)nc(N)nc3N[C@@H]3C[C@H](CO)[C@@H](O)[C@H]3O)sc2c1` [Example 182]: the EC90 was under 0.5 µM.

In the case of `CNc1nc(Cl)c(-c2cc3cc(OC)nc(C)c3o2)c(N[C@@H]2C[C@H](CO)[C@@H](O)[C@H]2O)n1` [Example 15], the EC90 was under 0.5 µM.

On to `Cc1cc2cc(-c3c(Cl)nc(N)nc3N[C@@H]3C[C@H](CO)[C@@H](O)[C@H]3O)oc2c(C)n1` [Example 401], for which the EC90 was under 0.5 µM.

Still in this test, the particulars now being: Hepatitis C virus, 72 h, HCV replicon cells, harvested on day 3, replicon RNA by real time PCR; calculated EC90 reported as range class; read-out: EC90 (μM) range.
Regarding `Cc1nc(NCCNS(C)(=O)=O)nc(N[C@@H]2C[C@H](CO)[C@H]3OC(C)(C)O[C@H]32)c1-c1nc2ccccc2s1` [Example 257], the EC90 is under 0.5 µM.

With `Cc1cccnc1CNc1nc(C)c(-c2nc3ccccc3s2)c(N[C@@H]2C[C@H](CO)[C@H]3OC(C)(C)O[C@H]32)n1` [Example 498], the EC90 is over 5 µM.

On to `Cc1nc(NCc2ncccn2)nc(N[C@@H]2C[C@H](CO)[C@@H](O)[C@H]2O)c1-c1nc2ccccc2s1` [Example 717], for which the EC90 is under 0.5 µM.

In the case of `OC[C@H]1C[C@@H](Nc2nc(NCCc3ccccc3)nc(Cl)c2-c2nc3ccccc3s2)[C@H](O)[C@@H]1O` [Example 444], the EC90 is under 0.5 µM.

For the compound `CCCCNc1nc(Cl)c(-c2nc3ccccc3s2)c(N[C@@H]2C[C@H](CO)[C@@H](O)[C@H]2O)n1` [Example 432], the EC90 was under 0.5 µM.

With `Cc1nc(NCCNS(C)(=O)=O)nc(N[C@@H]2C[C@H](CO)[C@@H](O)[C@H]2O)c1-c1nc2ccccc2s1` [Example 258], the EC90 is 0.5 to 5 µM.

Consider `Cc1nc(NCc2cccc(C(F)(F)F)c2)nc(N[C@@H]2C[C@H](CO)[C@@H](O)[C@H]2O)c1-c1nc2ccccc2s1` [Example 240], for which the EC90 is under 0.5 µM.

As to `OC[C@H]1C[C@@H](Nc2nc(NCC3CCCCC3)nc(Cl)c2-c2nc3ccccc3s2)[C@H](O)[C@@H]1O` [Example 322], the EC90 is under 0.5 µM.

Regarding `Cc1nc(NCCN2CCOCC2)nc(N[C@@H]2C[C@H](CO)[C@@H](O)[C@H]2O)c1-c1nc2ccccc2s1` [Example 252], the EC90 is under 0.5 µM.

As to `Cc1nc(NCc2cc3ccccc3s2)nc(N[C@@H]2C[C@H](CO)[C@H]3OC(C)(C)O[C@H]32)c1-c1nc2ccccc2s1` [Example 475], the EC90 was 0.5 to 5 µM.

In the case of `CCc1cc2cc(-c3c(Cl)nc(NCC4CC4)nc3N[C@@H]3C[C@H](CO)[C@@H](O)[C@H]3O)oc2cn1` [Example 503], the EC90 was under 0.5 µM.

In the case of `Cc1ccsc1CNc1nc(C)c(-c2nc3ccccc3s2)c(N[C@@H]2C[C@H](CO)[C@@H](O)[C@H]2O)n1` [Example 479], the EC90 was under 0.5 µM.

Consider `Cc1nc(S(C)(=O)=O)nc(N[C@@H]2C[C@H](CO)[C@@H](O)[C@H]2O)c1-c1nc2ccccc2s1` [Example 324], for which the EC90 was over 5 µM.

As to `CCCCCNc1nc(C)c(-c2nc3ccccc3s2)c(N[C@@H]2C[C@H](CO)[C@@H](O)[C@H]2O)n1` [Example 435], the concentration for an effect of 90% (EC90) is under 0.5 µM.

Still in this test, the particulars now being: Hepatitis C virus, 72 h, HCV replicon cells, replicon RNA level by real time PCR (Taqman), day 3; calculated EC90; read-out: EC90 (μM) range.
Turning to `Cc1ccc([C@H](Nc2nc(C)c(-c3nc4ccccc4s3)c(N[C@@H]3C[C@H](CO)[C@@H](O)[C@H]3O)n2)C(F)(F)F)cc1` [Example 2005], the EC90 was 0.5 to 5 µM.

On to `Cc1ccc([C@H](Nc2nc(C)c(-c3nc4ccccc4s3)c(N[C@@H]3C[C@H](CO)[C@H]4OC(C)(C)O[C@H]43)n2)C(F)(F)F)cc1` [Example 2004], for which the EC90 is 0.5 to 5 µM.

The test is the same for the next values; noted with them: Hepatitis C virus, 72 h, HCV replicon cells, replicon RNA level by real time PCR (Taqman), harvested on day 3; calculated EC90 reported as range class; read-out: EC90 (μM) range.
Consider `COCc1cc2cc(-c3c(C)nc(NCc4ccco4)nc3N[C@@H]3C[C@H](CO)[C@@H](O)[C@H]3O)oc2cn1` [Example 1108], for which the EC90 is under 0.5 µM.

Regarding `CCOCCNc1nc(C)c(-c2nc3cnccc3s2)c(N[C@@H]2C[C@H](CO)[C@@H](O)[C@H]2O)n1` [Example 525], the EC90 was under 0.5 µM.

In the case of `Cc1nc(NCC(C)(C)O)nc(N[C@@H]2C[C@H](CO)[C@@H](O)[C@H]2O)c1-c1nc2ccccc2s1` [Example 1014], the EC90 is under 0.5 µM.

Turning to `Cc1nc(NCc2cc(F)cc(F)c2)nc(N[C@@H]2C[C@H](CO)[C@@H](O)[C@H]2O)c1-c1nc2cnccc2s1` [Example 1309], the EC90 is under 0.5 µM.

Take `Cc1cnc(CNc2nc(C)c(-c3nc4ccccc4s3)c(N[C@@H]3C[C@H](CO)[C@@H](O)[C@H]3O)n2)s1` [Example 1204]: the EC90 is under 0.5 µM.

For the compound `Cc1nc(NCC(F)(F)F)nc(N[C@@H]2C[C@H](CO)[C@@H](O)[C@@H]2O)c1-c1nc2ccccc2s1` [Example 1253], the EC90 is 0.5 to 5 µM.

With `Cc1nc(NCC2CC2)nc(N[C@@H]2C[C@H](CO)[C@@H](O)[C@H]2O)c1-c1nc2ccccc2o1` [Example 528], the EC90 is 0.5 to 5 µM.

Regarding `CC[C@@H](C)Nc1nc(C)c(-c2nc3cnccc3s2)c(N[C@@H]2C[C@H](CO)[C@@H](O)[C@H]2O)n1` [Example 1316], the 90% effect concentration (EC90) was under 0.5 µM.

`COc1cc(Nc2nc(C)c(-c3nc4ccccc4s3)c(N[C@@H]3C[C@H](CO)[C@@H](O)[C@H]3O)n2)cc(OC)c1` [Example 1230]: the EC90 was over 5 µM.

In the case of `COc1ccc(CNc2nc(C)c(-c3nc4ccccc4s3)c(N[C@@H]3CC[C@@H](O)[C@H]3O)n2)cc1OC` [Example 1205], the EC90 is 0.5 to 5 µM.

Regarding `COCCNc1nc(C)c(-c2nc3cc(OC)ccc3s2)c(N[C@@H]2C[C@H](CO)[C@@H](O)[C@H]2O)n1` [Example 1009], the EC90 was 0.5 to 5 µM.

On to `COc1cc2cc(-c3c(C)nc(NCC(C)(C)C)nc3N[C@@H]3C[C@H](CO)[C@@H](O)[C@H]3O)oc2c(C)n1` [Example 1201], for which the EC90 was 0.5 to 5 µM.

On to `CCCCCCNc1nc(C)c(-c2nc3ccccc3s2)c(N[C@@H]2C[C@H](CO)[C@H]3OC(C)(C)O[C@H]32)n1` [Example 1117], for which the EC90 was over 5 µM.

With `COCCNc1nc(C)c(-c2nc3cc(OC(F)F)c(OC(F)F)cc3s2)c(N[C@@H]2C[C@H](CO)[C@H]3OC(C)(C)O[C@H]32)n1` [Example 1003], the EC90 was over 5 µM.

With `COCCNc1nc(C)c(-c2nc3cnccc3s2)c(N[C@@H]2C[C@H](CO)[C@@H](O)[C@H]2O)n1` [Example 526], the EC90 is under 0.5 µM.

As for `COc1cc(OC)cc(Oc2nc(C)c(-c3nc4ccccc4s3)c(N[C@@H]3C[C@H](CO)[C@@H](O)[C@H]3O)n2)c1` [Example 1211], the 90% effect concentration (EC90) is over 5 µM.

On to `Cc1nc(N)nc(N[C@@H]2C[C@H](CO)[C@@H](O)[C@H]2O)c1-c1nc2cnccc2s1` [Example 1325], for which the EC90 was 0.5 to 5 µM.

Take `Cc1nc(NCC(=O)O)nc(N[C@@H]2C[C@H](CO)[C@@H](O)[C@H]2O)c1-c1nc2ccccc2s1` [Example 1011]: the 90% effect concentration (EC90) is 0.5 to 5 µM.

The same test, now with this note: Hepatitis C virus, 72 h, HCV replicon cells, replicon RNA level by real time PCR, harvested day 3; read-out: EC90 (μM) range.
Take `Cc1nc(N[C@H](C)c2ccc(-n3cccn3)cc2)nc(N[C@@H]2C[C@H](CO)[C@@H](O)[C@H]2O)c1-c1nc2c(C)nccc2s1` [Example 1355]: the EC90 is under 0.5 µM.

`Cc1nc(NCC2CC2)nc(N[C@@H]2CC[C@@H](O)[C@@]2(C)O)c1-c1nc2ccccc2s1` [Example 1701]: the EC90 was 0.5 to 5 µM.

In the case of `Cc1nc(NCC2CC2)nc(N[C@@H]2C[C@H](CO)[C@@H](O)C2(C)O)c1-c1nc2cnccc2s1` (stereo partly shown) [Example 1383], the EC90 was under 0.5 µM.

Regarding `Cc1nc(NC(C)c2cccnc2)nc(N[C@@H]2C[C@H](CO)[C@@H](O)[C@H]2O)c1-c1nc2ccccc2s1` (stereo partly shown) [Example 1802], the EC90 is 0.5 to 5 µM.

With `CCO[C@@H]1[C@H](O)[C@@H](CO)C[C@H]1Nc1nc(NCC(F)(F)F)nc(C)c1-c1nc2ccccc2s1` [Example 1352], the EC90 was under 0.5 µM.

For the compound `Cc1nc(NCC(F)(F)F)nc(N[C@@H]2C[C@H](CO)[C@@H](O)[C@H]2O)c1-c1cc2ccccc2s1` [Example 1604], the EC90 was over 5 µM.

`Cc1nc(NCC2CC2)nc(NC2CC(CO)(CO)C2)c1-c1nc2ccccc2s1` [Example 1610]: the EC90 was in the range of 0.5 to 5 µM.

On to `Cc1ccsc1CCNc1nc(C)c(-c2nc3ccccc3s2)c(N[C@@H]2C[C@H](CO)[C@@H](O)[C@H]2O)n1` [Example 1706], for which the EC90 was in the range of 0.5 to 5 µM.

For the compound `COC(=O)NC[C@H]1C[C@@H](Nc2nc(NCC(F)(F)F)nc(C)c2-c2nc3ccccc3s2)[C@H](O)[C@@H]1O` [Example 1522], the EC90 was in the range of 0.5 to 5 µM.

On to `Cc1nc(N)nc(N[C@@H]2C[C@H](COS(C)(=O)=O)[C@@H](O)[C@H]2O)c1-c1nc2ccccc2s1` [Example 1905], for which the EC90 was in the range of 0.5 to 5 µM.

Consider `Cc1nc(N[C@H](C)C(F)(F)F)nc(N[C@@H]2C[C@H](CO)[C@@H](O)[C@H]2O)c1-c1nc2c(C)nccc2s1` [Example 1351], for which the EC90 is under 0.5 µM.
